Common to all, as to format: cell-based, human
Common to all, as to details: treated 1 h (menadione 100 μmol/L, 30 min)

One test relates to DLD‐1 CRC cell line. Briefly: intracellular ROS, CellROX Deep Red flow cytometry, DLD-1. Here is the method:
In order to estimate the effect of each inhibitor described above, intracellular reactive oxygen species (ROS) were measured using CellROX™ Deep Red reagent (Molecular Probes). Briefly, cells were seeded on 6‐well plates at 1 × 10^6 cells per well. After cells reached 90% confluence, cells were treated with designated reagents for 1 h. CellROX™ Deep Red reagent was added at a final concentration of 5 μmol/L to the culture medium and then incubated for 30 min at 37°C. Subsequently, the medium was removed and the cells were washed with PBS and detached using 0.25% trypsin‐EDTA. The resulting fluorescence was measured using a FACS Calibur flow cytometer (Becton Dickinson, Franklin Lakes, NJ). Menadione (100 μmol/L) was added 30 min before CellROX™ Deep Red reagent treatment as a reference ROS inducer. […] CD44v9 positivity of CTOS cells was analyzed as follows: Cancer spheroids were dispersed with serial treatments of TrypLE™ (20 min, GIBCO) and Accumax™ (10 min, Innovative Cell Technologies, San Diego, CA). Cell surface CD44v9 was stained with CD44v9 antibody (Cosmobio) as well as PE‐conjugated anti‐rat IgG2a (Becton Dickinson). The fluorescence was measured using a FACS Calibur flow cytometer (Becton Dickinson). […]
One hour after each drug treatment, cells were stained with CellROX DeepRed and intracellular ROS were quantified with FACS. […]
(In general: Flow cytometry measures light scatter and fluorescence of single cells or particles in a stream.)

The test system of a further test is HCT116 CRC cell line. Briefly: intracellular ROS, CellROX Deep Red flow cytometry, HCT116. How it is done:
(§1) In order to estimate the effect of each inhibitor described above, intracellular reactive oxygen species (ROS) were measured using CellROX™ Deep Red reagent (Molecular Probes). Briefly, cells were seeded on 6‐well plates at 1 × 10^6 cells per well. After cells reached 90% confluence, cells were treated with designated reagents for 1 h. CellROX™ Deep Red reagent was added at a final concentration of 5 μmol/L to the culture medium and then incubated for 30 min at 37°C. Subsequently, the medium was removed and the cells were washed with PBS and detached using 0.25% trypsin‐EDTA. The resulting fluorescence was measured using a FACS Calibur flow cytometer (Becton Dickinson, Franklin Lakes, NJ). Menadione (100 μmol/L) was added 30 min before CellROX™ Deep Red reagent treatment as a reference ROS inducer. […] CD44v9 positivity of CTOS cells was analyzed as follows: Cancer spheroids were dispersed with serial treatments of TrypLE™ (20 min, GIBCO) and Accumax™ (10 min, Innovative Cell Technologies, San Diego, CA). Cell surface CD44v9 was stained with CD44v9 antibody (Cosmobio) as well as PE‐conjugated anti‐rat IgG2a (Becton Dickinson). The fluorescence was measured using a FACS Calibur flow cytometer (Becton Dickinson). Since CTOSs contained abundant auto‐fluorescent cells, we defined FL2^+FL1^− cells as authentic PE‐positive (Fig. S4). Thus, CD44v9‐positive rate was defined as FL2^+FL1^−/total live cells and CD44v9‐positive fraction was further gated and split between CD44v9^low and CD44v9^high (Fig. S4), to calculate the mean fluorescent intensity of CD44v9^high fraction.
One hour after each drug treatment, cells were stained with CellROX DeepRed and intracellular ROS were quantified with FACS. Upper: histogram of fluorescent signal is represented. Lower. representative mean fluorescent intensity scores are shown. Note that without drug treatment (Control), intracellular ROS is higher in OUMS36 and TIG3 (embryonic fibroblasts) but lower in DLD-1 and HCT116 (CRC cell lines). ROS in DLD-1 was increased by auranofin. ROS in HCT116 was increased by all the inhibitors tested. Menadione was used as a reference chemical to increase ROS.

Test [1] has as its system OUMS‐36 embryonic fibroblasts. Briefly: intracellular ROS, CellROX Deep Red flow cytometry, OUMS-36. How it is done:
as §1
(§2) One hour after each drug treatment, cells were stained with CellROX DeepRed and intracellular ROS were quantified with FACS. Upper: histogram of fluorescent signal is represented. Lower. representative mean fluorescent intensity scores are shown. Note that without drug treatment (Control), intracellular ROS is higher in OUMS36 and TIG3 (embryonic fibroblasts) but lower in DLD-1 and HCT116 (CRC cell lines). ROS in DLD-1 was increased by auranofin. ROS in HCT116 was increased by all the inhibitors tested. […]

Test [2] relates to TIG‐3 embryonic fibroblasts. The test can be described thus: intracellular ROS, CellROX Deep Red flow cytometry, TIG-3. Here is the method:
as §1, §2

“Also recorded” adds a separate entry of the source.

The values that follow come from publication PMC5055185, “Dual pharmacological inhibition of glutathione and thioredoxin systems synergizes to kill colorectal carcinoma stem cells” (Cancer Medicine, 2016).

For the compound `CC[PH](CC)(CC)[Au][S][C@@H]1O[C@H](COC(C)=O)[C@@H](OC(C)=O)[C@H](OC(C)=O)[C@H]1OC(C)=O` [Aura, Auranofin], the entries for the “intracellular ROS response” value in the test on DLD‐1 CRC cell line and in the test on HCT116 CRC cell line were “increased; also recorded: increase of ROS” and “increase of ROS”, respectively.

`COc1cc(/C=C/C(=O)N2CCC=CC2=O)cc(OC)c1OC` [Pipe, Piperlongumine]: the “intracellular ROS response” value in test [1] is “no ROS increase”; in test [2], “no ROS increase”; in the test on HCT116 CRC cell line, “increase of ROS”.
